# Experimental data published in patent US4613355A, “Antibiotic having herbicidal activity” (Satoshi Omura, priority 1983, dated 1986).
# Key:
# Assay in all cases: Foliage treatment (Example 8)
# Type in all cases: in vivo
# Design in all cases: key: 0 indicates no effect; 5 indicates complete kill
# Oryzae sativa = settings: Plant No. 25 Oryzae sativa
# Procedure: (§1) Aqueous solutions of Phosalacine (Na salt) at different concentrations were applied at a rate of 1500 liters per hectare to naturally occurring plants or plants which were cultured on plates as shown in the following Table at certain stages of growth. […] One month after the foliage treatment, the inhibition of regrowth of the plants was visually investigated.
# Triticum aestivum = settings: Plant No. 26 Triticum aestivum
# Procedure: as §1
# Daucus carota = settings: Plant No. 29 Daucus carota
# Procedure: as §1
# Pueraria lobata = settings: Plant No. 16 Pueraria lobata
# Procedure: as §1
# Digitaria adscendens = settings: Plant No. 10 Digitaria adscendens
# Procedure: as §1
# Helianthus tuberosus = settings: Plant No. 12 Helianthus tuberosus
# Procedure: as §1
# Rumex obtusifolius = settings: Plant No. 14 Rumex obtusifolius
# Procedure: as §1
# Cayratia japonica = settings: Plant No. 13 Cayratia japonica
# Procedure: as §1
# Solanum melongena = settings: Plant No. 31 Solanum melongena
# Procedure: as §1
# Pleioblastus chino = settings: Plant No. 11 Pleioblastus chino
# Procedure: as §1
# Imperata cyrindrica = settings: Plant No. 15 Imperata cyrindrica
# Procedure: as §1
# Raphanus sativus = settings: Plant No. 32 Raphanus sativus
# Procedure: as §1
# Euphonia supina = settings: Plant No. 36 Euphonia supina
# Procedure: (§2) Aqueous solutions of Phosalacine (Na salt) at different concentrations were applied at a rate of 1500 liters per hectare to naturally occurring plants or plants which were cultured on plates as shown in the following Table at certain stages of growth. […]
# Oxalis corniculata = settings: Plant No. 35 Oxalis corniculata
# Procedure: as §2
# Allium fistulosum = settings: Plant No. 27 Allium fistulosum
# Procedure: as §2
# [1] = test system: Eleucine indica var. carocana; settings: Plant No. 24 Eleucine indica var. carocana
# Procedure: as §2
smiles,measurement,setting,value
"C[C@H](NC(=O)[C@H](C)NC(=O)[C@@H](N)CCP(C)(=O)[O-])C(=O)O.[Na+] [SF, reference compound]","damage to the plants, scale 0 to 5","Oryzae sativa; 0.1%, 7 days",3
same,"damage to the plants, scale 0 to 5","Oryzae sativa; 0.1%, 14 days",4
same,"damage to the plants, scale 0 to 5","Oryzae sativa; 0.2%, 7 days",4
same,"damage to the plants, scale 0 to 5","Oryzae sativa; 0.2%, 14 days",5
same,"damage to the plants, scale 0 to 5","Triticum aestivum; 0.1%, 7 days",3
same,"damage to the plants, scale 0 to 5","Triticum aestivum; 0.1%, 14 days",4
same,"damage to the plants, scale 0 to 5","Triticum aestivum; 0.2%, 7 days",4
same,"damage to the plants, scale 0 to 5","Triticum aestivum; 0.2%, 14 days",5
same,"damage to the plants, scale 0 to 5","Daucus carota; 0.1%, 7 days",2
same,"damage to the plants, scale 0 to 5","Daucus carota; 0.1%, 14 days",4
same,"damage to the plants, scale 0 to 5","Daucus carota; 0.2%, 7 days",3
same,"damage to the plants, scale 0 to 5","Daucus carota; 0.2%, 14 days",5
same,"damage to the plants, scale 0 to 5","Pueraria lobata; 0.1%, 7 days",3
same,"damage to the plants, scale 0 to 5","Pueraria lobata; 0.1%, 14 days",4
same,"damage to the plants, scale 0 to 5","Pueraria lobata; 0.2%, 7 days",4
same,"damage to the plants, scale 0 to 5","Pueraria lobata; 0.2%, 14 days",5
same,"damage to the plants, scale 0 to 5","Digitaria adscendens; 0.1%, 7 days",3
same,"damage to the plants, scale 0 to 5","Digitaria adscendens; 0.1%, 14 days",4
same,"damage to the plants, scale 0 to 5","Digitaria adscendens; 0.2%, 7 days",5
same,"damage to the plants, scale 0 to 5","Digitaria adscendens; 0.2%, 14 days",5
same,"damage to the plants, scale 0 to 5","Helianthus tuberosus; 0.1%, 7 days",3
same,"damage to the plants, scale 0 to 5","Helianthus tuberosus; 0.1%, 14 days",4
same,"damage to the plants, scale 0 to 5","Helianthus tuberosus; 0.2%, 7 days",4
same,"damage to the plants, scale 0 to 5","Helianthus tuberosus; 0.2%, 14 days",5
same,"damage to the plants, scale 0 to 5","Rumex obtusifolius; 0.1%, 7 days",3
same,"damage to the plants, scale 0 to 5","Rumex obtusifolius; 0.1%, 14 days",4
same,"damage to the plants, scale 0 to 5","Rumex obtusifolius; 0.2%, 7 days",4
same,"damage to the plants, scale 0 to 5","Rumex obtusifolius; 0.2%, 14 days",5
same,"damage to the plants, scale 0 to 5","Cayratia japonica; 0.1%, 7 days",3
same,"damage to the plants, scale 0 to 5","Cayratia japonica; 0.1%, 14 days",4
same,"damage to the plants, scale 0 to 5","Cayratia japonica; 0.2%, 7 days",4
same,"damage to the plants, scale 0 to 5","Cayratia japonica; 0.2%, 14 days",5
same,"damage to the plants, scale 0 to 5","Solanum melongena; 0.1%, 7 days",3
same,"damage to the plants, scale 0 to 5","Solanum melongena; 0.1%, 14 days",4
same,"damage to the plants, scale 0 to 5","Solanum melongena; 0.2%, 7 days",5
same,"damage to the plants, scale 0 to 5","Solanum melongena; 0.2%, 14 days",5
same,"damage to the plants, scale 0 to 5","Pleioblastus chino; 0.1%, 7 days",3
same,"damage to the plants, scale 0 to 5","Pleioblastus chino; 0.1%, 14 days",4
same,"damage to the plants, scale 0 to 5","Pleioblastus chino; 0.2%, 7 days",4
same,"damage to the plants, scale 0 to 5","Pleioblastus chino; 0.2%, 14 days",5
same,"damage to the plants, scale 0 to 5","Imperata cyrindrica; 0.1%, 7 days",3
same,"damage to the plants, scale 0 to 5","Imperata cyrindrica; 0.1%, 14 days",4
same,"damage to the plants, scale 0 to 5","Imperata cyrindrica; 0.2%, 7 days",4
same,"damage to the plants, scale 0 to 5","Imperata cyrindrica; 0.2%, 14 days",5
same,"damage to the plants, scale 0 to 5","Raphanus sativus; 0.1%, 7 days",3
same,"damage to the plants, scale 0 to 5","Raphanus sativus; 0.1%, 14 days",4
same,"damage to the plants, scale 0 to 5","Raphanus sativus; 0.2%, 7 days",4
same,"damage to the plants, scale 0 to 5","Raphanus sativus; 0.2%, 14 days",5
same,"damage to the plants, scale 0 to 5","Euphonia supina; 0.1%, 7 days",3
same,"damage to the plants, scale 0 to 5","Euphonia supina; 0.1%, 14 days",4
same,"damage to the plants, scale 0 to 5","Euphonia supina; 0.2%, 7 days",4
same,"damage to the plants, scale 0 to 5","Euphonia supina; 0.2%, 14 days",5
same,"damage to the plants, scale 0 to 5","Oxalis corniculata; 0.1%, 7 days",3
same,"damage to the plants, scale 0 to 5","Oxalis corniculata; 0.1%, 14 days",4
same,"damage to the plants, scale 0 to 5","Oxalis corniculata; 0.2%, 7 days",4
same,"damage to the plants, scale 0 to 5","Oxalis corniculata; 0.2%, 14 days",5
same,"damage to the plants, scale 0 to 5","Allium fistulosum; 0.1%, 7 days",3
same,"damage to the plants, scale 0 to 5","Allium fistulosum; 0.1%, 14 days",4
same,"damage to the plants, scale 0 to 5","Allium fistulosum; 0.2%, 7 days",5
same,"damage to the plants, scale 0 to 5","Allium fistulosum; 0.2%, 14 days",5
same,"damage to the plants, scale 0 to 5","[1]; 0.1%, 7 days",3
same,"damage to the plants, scale 0 to 5","[1]; 0.1%, 14 days",4
same,"damage to the plants, scale 0 to 5","[1]; 0.2%, 7 days",4
same,"damage to the plants, scale 0 to 5","[1]; 0.2%, 14 days",5
